# Assay results from PubChem BioAssay (NCI).
#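 Here, GI50 denotes the concentration required for 50% inhibition of growth. TGI: concentration producing complete growth inhibition.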
# How the values were obtained:
# Experiment in all cases: inhibition of tumour cell growth, NCI panel, 384-well format
# HOP-92 NSCLC = test system: HOP-92 NSCLC
# UACC-62 melanoma = test system: UACC-62 melanoma
# M14 melanoma = test system: M14 melanoma
# SW-620 colon = test system: SW-620 colon
# SNB-75 CNS = test system: SNB-75 CNS
# HS 578T breast = test system: HS 578T breast
# HCT-15 colon = test system: HCT-15 colon
# KM12 colon = test system: KM12 colon
# MDA-MB-468 breast = test system: MDA-MB-468 breast
# EKVX NSCLC = test system: EKVX NSCLC
# SF-539 CNS = test system: SF-539 CNS
# SNB-19 CNS = test system: SNB-19 CNS
# UACC-257 melanoma = test system: UACC-257 melanoma
# OVCAR-4 ovarian = test system: OVCAR-4 ovarian
# SK-MEL-5 melanoma = test system: SK-MEL-5 melanoma
# OVCAR-8 ovarian = test system: OVCAR-8 ovarian
# T-47D breast = test system: T-47D breast
# OVCAR-3 ovarian = test system: OVCAR-3 ovarian
# DU-145 prostate = test system: DU-145 prostate
# NCI-H23 lung = test system: NCI-H23 lung
# SF-295 CNS = test system: SF-295 CNS
# RXF 393 renal = test system: RXF 393 renal
# HOP-62 NSCLC = test system: HOP-62 NSCLC
# HL-60(TB) leukemia = test system: HL-60(TB) leukemia
# CCRF-CEM leukemia = test system: CCRF-CEM leukemia
# HCC-2998 colon = test system: HCC-2998 colon
# RPMI-8226 leukemia = test system: RPMI-8226 leukemia
# NCI-H522 lung = test system: NCI-H522 lung
# SF-268 CNS = test system: SF-268 CNS
# U251 glioblastoma = test system: U251 glioblastoma
# SK-MEL-28 melanoma = test system: SK-MEL-28 melanoma
# PC-3 prostate = test system: PC-3 prostate
# A549 NSCLC = test system: A549 NSCLC
# IGROV1 ovarian = test system: IGROV1 ovarian
# K-562 leukemia = test system: K-562 leukemia
# NCI-H322M lung = test system: NCI-H322M lung
# SN12C renal = test system: SN12C renal
# CAKI-1 renal = test system: CAKI-1 renal
# A498 renal = test system: A498 renal
# MALME-3M melanoma = test system: MALME-3M melanoma
# BT-549 breast = test system: BT-549 breast
# MOLT-4 leukemia = test system: MOLT-4 leukemia
# HT29 colon = test system: HT29 colon
# NCI-H226 lung = test system: NCI-H226 lung
# NCI-H460 NSCLC = test system: NCI-H460 NSCLC
# MDA-MB-435 melanoma = test system: MDA-MB-435 melanoma
# MCF7 breast = test system: MCF7 breast
# 786-0 renal = test system: 786-0 renal
# HCT-116 colon = test system: HCT-116 colon
# OVCAR-5 ovarian = test system: OVCAR-5 ovarian
# TK-10 renal = test system: TK-10 renal
# SK-OV-3 ovarian = test system: SK-OV-3 ovarian
# COLO 205 colon = test system: COLO 205 colon
# ACHN renal = test system: ACHN renal
# MDA-MB-231 breast = test system: MDA-MB-231 breast
# SR leukemia = test system: SR leukemia
# LOX IMVI melanoma = test system: LOX IMVI melanoma
# SK-MEL-2 melanoma = test system: SK-MEL-2 melanoma
# UO-31 renal = test system: UO-31 renal
# NCI/ADR-RES ovarian = test system: NCI/ADR-RES ovarian
compound,measurement,setting,value
COc1cc(F)ccc1-c1cc(Nc2cc(CS(C)(=N)=O)ccn2)ncc1F (stereo not drawn),GI50,HOP-92 NSCLC,62.9 nM
same,TGI,HOP-92 NSCLC,46 µM
same,GI50,UACC-62 melanoma,17.1 nM
same,TGI,UACC-62 melanoma,49.2 nM
same,GI50,M14 melanoma,34.7 nM
same,TGI,M14 melanoma,157 nM
same,GI50,SW-620 colon,43.7 nM
same,TGI,SW-620 colon,0.475 µM
same,GI50,SNB-75 CNS,50.9 nM
same,TGI,SNB-75 CNS,201 nM
same,GI50,HS 578T breast,15.5 nM
same,TGI,HS 578T breast,41.6 nM
same,GI50,HCT-15 colon,38.7 nM
same,TGI,HCT-15 colon,> 100 µM
same,GI50,KM12 colon,23.7 nM
same,TGI,KM12 colon,0.0735 µM
same,GI50,MDA-MB-468 breast,58.7 nM
same,TGI,MDA-MB-468 breast,193 nM
same,GI50,EKVX NSCLC,73.9 nM
same,TGI,EKVX NSCLC,498 nM
same,GI50,SF-539 CNS,26.3 nM
same,TGI,SF-539 CNS,69 nM
same,GI50,SNB-19 CNS,44.6 nM
same,TGI,SNB-19 CNS,> 100 µM
same,GI50,UACC-257 melanoma,104 nM
same,TGI,UACC-257 melanoma,251 nM
same,GI50,OVCAR-4 ovarian,165 nM
same,TGI,OVCAR-4 ovarian,0.889 µM
same,GI50,SK-MEL-5 melanoma,28.3 nM
same,TGI,SK-MEL-5 melanoma,109 nM
same,GI50,OVCAR-8 ovarian,30.5 nM
same,TGI,OVCAR-8 ovarian,0.112 µM
same,GI50,T-47D breast,46.2 nM
same,TGI,T-47D breast,> 100 µM
same,GI50,OVCAR-3 ovarian,24.2 nM
same,TGI,OVCAR-3 ovarian,80.1 nM
same,GI50,DU-145 prostate,29.1 nM
same,TGI,DU-145 prostate,0.0925 µM
same,GI50,NCI-H23 lung,30.4 nM
same,TGI,NCI-H23 lung,130 nM
same,GI50,SF-295 CNS,35.3 nM
same,TGI,SF-295 CNS,180 nM
same,GI50,RXF 393 renal,16 nM
same,TGI,RXF 393 renal,37.6 nM
same,GI50,HOP-62 NSCLC,18.3 nM
same,TGI,HOP-62 NSCLC,45.5 nM
same,GI50,HL-60(TB) leukemia,15.4 nM
same,TGI,HL-60(TB) leukemia,29.4 nM
same,GI50,CCRF-CEM leukemia,17.6 nM
same,TGI,CCRF-CEM leukemia,36.2 nM
same,GI50,HCC-2998 colon,37.9 nM
same,TGI,HCC-2998 colon,207 nM
same,GI50,RPMI-8226 leukemia,41 nM
same,TGI,RPMI-8226 leukemia,138 nM
same,GI50,NCI-H522 lung,149 nM
same,TGI,NCI-H522 lung,0.385 µM
same,GI50,SF-268 CNS,17.1 nM
same,TGI,SF-268 CNS,0.0445 µM
same,GI50,U251 glioblastoma,43.3 nM
same,TGI,U251 glioblastoma,> 100 µM
same,GI50,SK-MEL-28 melanoma,30.4 nM
same,TGI,SK-MEL-28 melanoma,0.167 µM
same,GI50,PC-3 prostate,39.9 nM
same,TGI,PC-3 prostate,0.25 µM
same,GI50,A549 NSCLC,42.9 nM
same,TGI,A549 NSCLC,> 100000 nM
same,GI50,IGROV1 ovarian,33.7 nM
same,TGI,IGROV1 ovarian,> 100000 nM
same,GI50,K-562 leukemia,136 nM
same,TGI,K-562 leukemia,0.567 µM
same,GI50,NCI-H322M lung,29.2 nM
same,TGI,NCI-H322M lung,0.134 µM
same,GI50,SN12C renal,23.3 nM
same,TGI,SN12C renal,0.121 µM
same,GI50,CAKI-1 renal,28.2 nM
same,TGI,CAKI-1 renal,> 100000 nM
same,GI50,A498 renal,27 nM
same,TGI,A498 renal,> 100000 nM
same,GI50,MALME-3M melanoma,50.3 nM
same,TGI,MALME-3M melanoma,178 nM
same,GI50,BT-549 breast,26.2 nM
same,TGI,BT-549 breast,0.074 µM
same,GI50,MOLT-4 leukemia,27.3 nM
same,TGI,MOLT-4 leukemia,89.1 nM
same,GI50,HT29 colon,65.1 nM
same,TGI,HT29 colon,0.257 µM
CCN1[C@@H](C(=O)NC23CCC(C(=O)O)(CC2)CC3)[C@H](c2cccc(Cl)c2F)[C@]2(C(=O)Nc3cc(Cl)ccc32)C12CCCCC2,GI50,HOP-92 NSCLC,1770 nM
same,TGI,HOP-92 NSCLC,4.43 µM
same,GI50,NCI-H226 lung,< 10 nM
same,TGI,NCI-H226 lung,81.7 nM
same,GI50,NCI-H460 NSCLC,29.4 nM
same,TGI,NCI-H460 NSCLC,1080 nM
same,GI50,UACC-62 melanoma,< 10 nM
same,TGI,UACC-62 melanoma,364 nM
same,GI50,MDA-MB-435 melanoma,2260 nM
same,TGI,MDA-MB-435 melanoma,5.65 µM
same,GI50,MCF7 breast,26.9 nM
same,TGI,MCF7 breast,1120 nM
same,GI50,M14 melanoma,35 nM
same,TGI,M14 melanoma,2370 nM
same,GI50,SW-620 colon,3790 nM
same,TGI,SW-620 colon,13.4 µM
same,GI50,HCT-15 colon,2660 nM
same,TGI,HCT-15 colon,10.1 µM
same,GI50,KM12 colon,2870 nM
same,TGI,KM12 colon,9.12 µM
same,GI50,MDA-MB-468 breast,1700 nM
same,TGI,MDA-MB-468 breast,3610 nM
same,GI50,SF-539 CNS,2120 nM
same,TGI,SF-539 CNS,5190 nM
same,GI50,SNB-19 CNS,3090 nM
same,TGI,SNB-19 CNS,12.8 µM
same,GI50,UACC-257 melanoma,148 nM
same,TGI,UACC-257 melanoma,431 nM
same,GI50,OVCAR-4 ovarian,2220 nM
same,TGI,OVCAR-4 ovarian,7.32 µM
same,GI50,SK-MEL-5 melanoma,239 nM
same,TGI,SK-MEL-5 melanoma,1810 nM
same,GI50,OVCAR-8 ovarian,3000 nM
same,TGI,OVCAR-8 ovarian,11.4 µM
same,GI50,786-0 renal,3.49 µM
same,TGI,786-0 renal,13.5 µM
same,GI50,T-47D breast,1620 nM
same,TGI,T-47D breast,6.27 µM
same,GI50,OVCAR-3 ovarian,1440 nM
same,TGI,OVCAR-3 ovarian,2900 nM
same,GI50,HCT-116 colon,30.3 nM
same,TGI,HCT-116 colon,1490 nM
same,GI50,DU-145 prostate,3390 nM
same,TGI,DU-145 prostate,12.3 µM
same,GI50,NCI-H23 lung,1490 nM
same,TGI,NCI-H23 lung,3950 nM
same,GI50,SF-295 CNS,1240 nM
same,TGI,SF-295 CNS,2670 nM
same,GI50,OVCAR-5 ovarian,1920 nM
same,TGI,OVCAR-5 ovarian,4.66 µM
same,GI50,RXF 393 renal,1020 nM
same,TGI,RXF 393 renal,2560 nM
same,GI50,TK-10 renal,2890 nM
same,TGI,TK-10 renal,11.4 µM
same,GI50,HOP-62 NSCLC,1590 nM
same,TGI,HOP-62 NSCLC,4190 nM
same,GI50,SK-OV-3 ovarian,2960 nM
same,TGI,SK-OV-3 ovarian,13.7 µM
same,GI50,HL-60(TB) leukemia,2030 nM
same,TGI,HL-60(TB) leukemia,3460 nM
same,GI50,CCRF-CEM leukemia,1420 nM
same,TGI,CCRF-CEM leukemia,2750 nM
same,GI50,HCC-2998 colon,1270 nM
same,TGI,HCC-2998 colon,2910 nM
same,GI50,RPMI-8226 leukemia,1260 nM
same,TGI,RPMI-8226 leukemia,2510 nM
same,GI50,COLO 205 colon,2200 nM
same,TGI,COLO 205 colon,4.46 µM
same,GI50,ACHN renal,19.4 nM
same,TGI,ACHN renal,390 nM
same,GI50,NCI-H522 lung,2410 nM
same,TGI,NCI-H522 lung,6.92 µM
same,GI50,MDA-MB-231 breast,3.13 µM
same,TGI,MDA-MB-231 breast,14.2 µM
same,GI50,SF-268 CNS,2340 nM
same,TGI,SF-268 CNS,6.8 µM
same,GI50,U251 glioblastoma,3070 nM
same,TGI,U251 glioblastoma,11.5 µM
same,GI50,SK-MEL-28 melanoma,2760 nM
same,TGI,SK-MEL-28 melanoma,7.42 µM
same,GI50,PC-3 prostate,2880 nM
same,TGI,PC-3 prostate,9.4 µM
same,GI50,SR leukemia,< 10 nM
same,GI50,A549 NSCLC,45.2 nM
same,TGI,A549 NSCLC,1140 nM
same,GI50,LOX IMVI melanoma,323 nM
same,TGI,LOX IMVI melanoma,1840 nM
same,GI50,IGROV1 ovarian,244 nM
same,TGI,IGROV1 ovarian,2770 nM
same,GI50,K-562 leukemia,2830 nM
same,TGI,K-562 leukemia,11 µM
same,GI50,NCI-H322M lung,3870 nM
same,TGI,NCI-H322M lung,15.1 µM
same,GI50,SN12C renal,3530 nM
same,TGI,SN12C renal,12.7 µM
same,GI50,SK-MEL-2 melanoma,638 nM
same,TGI,SK-MEL-2 melanoma,2160 nM
same,GI50,CAKI-1 renal,< 10 nM
same,TGI,CAKI-1 renal,418 nM
same,GI50,A498 renal,13.6 nM
same,TGI,A498 renal,1090 nM
same,GI50,UO-31 renal,19.3 nM
same,TGI,UO-31 renal,161 nM
same,GI50,NCI/ADR-RES ovarian,3.64 µM
same,TGI,NCI/ADR-RES ovarian,13.6 µM
same,GI50,MALME-3M melanoma,14 nM
same,TGI,MALME-3M melanoma,659 nM
same,GI50,BT-549 breast,1930 nM
same,TGI,BT-549 breast,6.16 µM
same,GI50,MOLT-4 leukemia,< 10 nM
same,GI50,HT29 colon,3520 nM
same,TGI,HT29 colon,13.9 µM
